Measured values published in BigSolDB 2.1.

C=C1CC[C@H](O)C/C1=C/C=C1\CCC[C@]2(C)[C@@H]([C@H](C)CCCC(C)C)CC[C@@H]12
solubility (mole fraction)
Conditions	in DMSO	in ethanol	in ethyl acetate	in ethylene glycol	in isopropanol	in n-butanol	in propylene glycol	in sec-butanol	in transcutol	in water
273.2 K	0.0041	0.136	0.0904	0.000113	0.19	0.151	0.00142	0.154	0.369	1.87e-07
278.2 K	0.00469	0.144	0.109	0.000161	0.202	0.157	0.00176	0.161	0.375	2.9e-07
283.2 K	0.00533	0.153	0.131	0.000234	0.215	0.163	0.00209	0.168	0.382	4.22e-07
288.2 K	0.00601	0.162	0.15	0.000318	0.225	0.169	0.00249	0.176	0.39	5.67e-07
298.2 K	0.00723	0.177	0.195	0.000524	0.245	0.169	0.00337	0.187	0.403	1.03e-06

Conditions	solubility (mole fraction)
in PEG-400, 273.2 K	0.0135
in PEG-400, 278.2 K	0.0162
in PEG-400, 283.2 K	0.0191
in PEG-400, 288.2 K	0.0222
in PEG-400, 298.2 K	0.0291
